In patent US20070093520A1, “Method of treatment of diarrhea-predominant irritable bowel syndrome in a subject” (priority 2005, published 2007):

Tested on: diarrhea-predominant IBS subjects
Assay: 3007 Study: open-label 52-week safety study, adverse events and withdrawals
Conditions: C/C group

Cc1nccn1C[C@H]1CCc2c(c3cccc4c3n2CCC4)C1=O [cilansetron, (R)-(−)-4,5,6,8,9,10-hexahydro-10-[(2-methyl-1H-imidazol-1-yl)methyl]-11H-pyrido-[3,2,1-jk]-carbazol-11-one]
2 (<1%) n (%): TEAE: Anxiety Aggravated | TEAE: Basal Cell Carcinoma | TEAE: Breathing Abnormalities | TEAE: Cardiac Conduction Disorders | TEAE: Cardiac Signs and Symptoms NEC | TEAE: Cerumen Impaction | TEAE: Cholecystitis and Cholelithiasis | TEAE: Cholelithiasis | TEAE: Conjunctival Infections, Irritations and Inflammations | TEAE: Dermatitis and Eczema | TEAE: Diabetes Mellitus (Incl Subtypes) | TEAE: Dry Eye NOS | TEAE: Dyspnoea NOS | TEAE: Endocrine Disorders | TEAE: External Ear Disorders NEC | TEAE: Fall | TEAE: Febrile Disorders | TEAE: Gout | TEAE: Inner Ear Infections and Inflammations
3 (1%) n (%): TEAE: Angina Pectoris | TEAE: Anxiety | TEAE: Blood and Lymphatic System Disorders | TEAE: Bronchospasm and Obstruction | TEAE: Calculus Renal NOS | TEAE: Chest Pain | TEAE: Depression Aggravated | TEAE: Elevated Cholesterol | TEAE: Hypercholesterolaemia | TEAE: Influenza Like Illness
4 (2%) n (%): TEAE: Atopic Disorders | TEAE: Depression | TEAE: Haematuria | TEAE: Hepatobiliary Disorders | TEAE: Ischaemic Coronary Artery Disorders
0 n (%): TEAE: Abdominal Therapeutic Procedures NEC | TEAE: Abdominoplasty | TEAE: Abnormal Chest Sounds NOS | TEAE: Acrochordons | TEAE: Age Related Issues | TEAE: Allergy to Insect Sting | TEAE: Alopecia | TEAE: Alopecias | TEAE: Anaemia NOS | TEAE: Anaemias NEC | TEAE: Apocrine and Eccrine Gland Disorders | TEAE: Behaviour and Socialisation Disturbances | TEAE: Benign Ovarian Tumour* | TEAE: Biliary Tract Disorder NOS | TEAE: Binocular Eye Movement Disorder NOS | TEAE: Bladder Disorders NEC | TEAE: Bladder Infections and Inflammations | TEAE: Bladder Prolapse | TEAE: Bradyarrhythmia | TEAE: Breast Calcifications* | TEAE: Breast Cancer NOS* | TEAE: Breast Disorder NOS* | TEAE: Breast and Nipple Neoplasms Malignant* | TEAE: Cardiac Fibrillation NOS | TEAE: Cardiac Flutter | TEAE: Chest Discomfort | TEAE: Congenital, Familial and Genetic Disorders | TEAE: Cystitis Interstitial | TEAE: Dermatitis Allergic | TEAE: Dermatitis Ascribed to Specific Agent | TEAE: Dermatitis Medicamentosa | TEAE: Dermatitis NOS | TEAE: Dermographism | TEAE: Dyshidrosis | TEAE: Fibroma NOS | TEAE: Fluid Intake Increased | TEAE: Food Allergy | TEAE: Gilbert's Syndrome | TEAE: Glucose Tolerance Impaired | TEAE: Glycosuria | TEAE: Hallucination NOS | TEAE: Hallucination, Auditory | TEAE: Hand Fracture | TEAE: Hernia NOS | TEAE: Hernias NEC | TEAE: Hyperglycaemia NOS | TEAE: Hyperglycaemic Conditions NEC | TEAE: Hyperkeratoses | TEAE: Hyperkeratosis | TEAE: Hypotension NOS | TEAE: Inborn Errors of Bilirubin Metabolism | TEAE: Ingrowing Nail | TEAE: Irritability
5 (2%) n (%): TEAE: Anxiety Symptoms | TEAE: Cough | TEAE: Immune System Disorders | TEAE: Insomnia
2 (1%) n (%): TEAE: Endometriosis*
6 (2%) n (%): TEAE: Bladder and Urethral Symptoms | TEAE: Coughing and Associated Symptoms | TEAE: Disturbances in Initiating and Maintaining Sleep | TEAE: Ear and Labyrinth Disorders | TEAE: General Signs and Symptoms NEC
8 (3%) n (%): TEAE: Asthenic Conditions | TEAE: Eye Disorders
23 (9%) n (%): TEAE: General Disorders and Administration Site Conditions
1 (<1%) n (%): TEAE: Acne NOS | TEAE: Acnes | TEAE: Acquired Hypothyroidism | TEAE: Adenomyosis* | TEAE: Allergic Conditions NEC | TEAE: Allergies to Foods, Food Additives, Drugs and Other Chemicals | TEAE: Amenorrhoea NOS* | TEAE: Anorexia | TEAE: Appetite Disorders | TEAE: Arrhythmia NOS | TEAE: Asthma Aggravated | TEAE: Asthma NOS | TEAE: Atrial Fibrillation | TEAE: Atrioventricular Block First Degree | TEAE: Bone Neoplasm Malignant | TEAE: Bone Neoplasms Malignant (Excl Sarcomas) | TEAE: Breast Disorders NEC* | TEAE: Breast Mass NOS* | TEAE: Breath Sounds Decreased | TEAE: Bruising, Ecchymosis and Purpura | TEAE: Bundle Branch Block Right | TEAE: Calculus Ureteric | TEAE: Cataract Unilateral | TEAE: Cataracts (Excl Congenital) | TEAE: Chest Tightness | TEAE: Conjunctivitis | TEAE: Conjunctivitis Allergic | TEAE: Contusion | TEAE: Cyst NOS | TEAE: Dacryostenosis Acquired | TEAE: Deafness NOS | TEAE: Dehydration | TEAE: Dermal and Epidermal Conditions NEC | TEAE: Dermatitis Contact | TEAE: Diabetes Mellitus Aggravated | TEAE: Diabetes Mellitus Non-Insulin-Dependent | TEAE: Drug Hypersensitivity | TEAE: Dysfunctional Uterine Bleeding* | TEAE: Dysuria | TEAE: Ear Disorders NEC | TEAE: Ear Pain | TEAE: Eczema | TEAE: Erythema | TEAE: Erythemas | TEAE: Fatigue Aggravated | TEAE: Fluid in Middle Ear | TEAE: Flushing | TEAE: Goitre | TEAE: Haematoma NOS | TEAE: Hearing Losses | TEAE: Hepatitis NOS | TEAE: Hepatobiliary Signs and Symptoms | TEAE: Hepatocellular Damage and Hepatitis NEC | TEAE: Hepatosplenomegaly NOS | TEAE: Hernia Repair NOS | TEAE: Hernia Repairs | TEAE: Hot Flushes NOS | TEAE: Hyperlipidaemia NOS | TEAE: Hyperlipidaemias NEC | TEAE: Hypersensitivity NOS | TEAE: Hypertension Aggravated | TEAE: Inner Ear Disorders NEC | TEAE: Inner Ear Signs and Symptoms | TEAE: Insomnia Exacerbated | TEAE: Intermenstrual Bleeding*
7 (3%) n (%): TEAE: Depressive Disorders | TEAE: Fatigue | TEAE: Hypertension NOS
10 (4%) n (%): TEAE: Cardiac Disorders
